Assay results as given in patent publication US20140142170A1, “COMPOSITION AND METHOD FOR INFLUENCING ENERGY METABOLISM AND TREATING METABOLIC AND OTHER DISORDERS” (SIRTUIN VALLEY OY, priority 2010, published 2014).
“Also recorded” adds a separate entry of the source.

Key:
[1] = test system: SIRT1; assay: SIRT1 protein expression, immunoblot and densitometry in 3T3 L1 preadipocytes; format: cell-based; conditions: 3T3 L1 preadipocytes, 60 μM, 24 hours; for SIRT1 protein expression, Derivative vs. GR24: derivative compared to GR24 (=100%)
Procedure: (§1) 3T3L1 cells were purchased from American Type Culture Collection (Manassas, Va., USA) and cultured in DMEM media containing 4.5 g/l glucose supplemented with 10% fetal bovine serum (Hyclone), 2 mM L-glutamine (Gibco), 100 U/ml penicillin, and 100 μg/ml streptomycin (Gibco). The cells were cultured at 37° C. in a humidified atmosphere with 10% CO2.
(§2) The 3T3L1 cells were plated at 6×10^4 cells/well in 12 well plates and incubated at 37° C. in a humidified atmosphere with 10% CO2. The media was removed after 24 hours and the cells were treated with 60 μM GR24 individually and in combination with 60 resveratrol and 60 μM pinosylvin, and incubated for 24 hours at 37° C. in a humidified atmosphere with 10% CO2. The media was removed, cells were washed with PBS, and cell lysates were collected on ice. Proteins were extracted using RIPA buffer along with protease and phosphatase inhibitors. Lysates were centrifuged for 30 min at high speed; supernatant was collected and stored at […] until further analysis. The vehicle controls were 3T3 L1 cells without any treatment with drugs or other compounds. The drugs or compounds that were used in all the experiments were dissolved or diluted in dimethylsulfoxide (DMSO) as diluent. In all experiments, the controls were treated with the same volume of DMSO as was used to dissolve drugs or compounds in compound-treated cells to show and ensure that the actual change in protein expression in different treatments was due solely to the compounds or combination of compounds and not to the DMSO.
(§3) Protein concentrations were measured using a BCA (bicinchoninic acid) protein assay kit (Cat.#23225; Pierce, Rockford, Ill.). Twenty (20) μg/lane of total cellular protein samples containing NuPAGE LDS sample buffer (Invitrogen) and reducing agent were loaded into 4-12% NuPAGE Bis-Tris gels (Invitrogen), subjected to gel electrophoresis, and transferred to polyvinylidene fluoride membranes (Amersham). For SIRT1 proteins, membranes were blocked in 0.05% TBS-Tween with 3% milk for 1 hour, incubated overnight at +4° C. with SIRT1 primary antibodies (Cat.#07-131, Millipore). For phospho-AMPKα and AMPKα proteins, blocking was done for 1 hour in 0.1% TBS-Tween with 5% milk. The membranes were incubated overnight at +4° C. with phospho-AMPKα (Cat. #2535, Cell Signaling) and AMPKα (Cat.#2532, Cell Signaling) primary antibodies. Horseradish peroxidase-conjugated anti-rabbit antibodies (Cat. #NA934V GE Health Care, Amersham, U.K) were used as secondary antibodies. For α-tubulin (loading control), membranes were blocked in 0.05% PBS-Tween with 3% milk for 1 hour, incubated with α-tubulin (Cat.# B-5-1-2, Sigma) primary antibodies for 1 hour at room temperature and horseradish peroxidase-conjugated anti-mouse (Cat. # NA 931V GE Health Care, Amersham, U.K.) IgG antibodies were used as secondary antibodies.
(§4) The membranes were developed using chemiluminescence (ECL plus, GE Health Care), and images were captured in an Image Quant RT-ECL machine (version 1.0.1; GE Health Care). Densitometry and quantification of the bands were done by applying Quantity One software (Bio-Rad). The expression levels of the proteins were normalized to α-tubulin protein levels.
3T3L1 cells were purchased from American Type Culture Collection (Manassas, Va., USA) and cultured in DMEM media containing 4.5 g/l glucose supplemented with 10% fetal bovine serum (Hyclone), 2 mM L-glutamine (Gibco) and 100 U/ml penicillin, 100 μg/ml streptomycin (Gibco). The cells were cultured at 37° C. in a humidified atmosphere with 10% CO2. 3T3L1 preadipocytes were plated at 1×10^5 cells/well in 6 well plates and incubated at 37° C. in a humidified atmosphere with 10% CO2. […] In all experiments, the controls were treated with the same volume of DMSO as was used to dissolve compounds in compound-treated cells to show and ensure that the actual change in protein expression in different treatments was only due to the compounds DMSO. […]

[2] = test system: PGC-1α; assay: PGC-1α protein expression, immunoblot and densitometry in 3T3 L1 preadipocytes; format: cell-based; conditions: 60 μM, 24 hours; for PGC-1α protein expression, Derivative vs. GR24: derivative compared to GR24 (=100%)
Procedure: as §1, with “CO2. […]” for “CO2.”
as §3, §4
PGC-1α as an indicator of SIRT1 activity: PGC-1α has been extensively described as a master regulator of mitochondrial biogenesis. […] When SIRT1 protein expression is induced, it interacts with and deacetylates PGC-1α in an NAD-dependent manner. Thus SIRT1 acts as a modulator of PGC-1a (Rodgers J T et al, Nature 2005). The effects of resveratrol, a nonselective SIRT1 activator, were associated with an induction of genes for oxidative phosphorylation and mitochondrial biogenesis, and were largely explained by a resveratrol-mediated decrease in PGC-1α acetylation and an increase in PGC-1α activity (Lagouge M, Cell 2006). Therefore, PGC-1α protein expression serves as an indicator of SIRT1 activity.
3T3L1 cells were purchased from American Type Culture Collection (Manassas, Va., USA) and cultured in DMEM media containing 4.5 g/l glucose supplemented with 10% fetal bovine serum (Hyclone), 2 mM L-glutamine (Gibco) and 100 U/ml penicillin, 100 μg/ml streptomycin (Gibco). The cells were cultured at 37° C. in a humidified atmosphere with 10% CO2. 3T3L1 preadipocytes were plated at 1×10^5 cells/well in 6 well plates and incubated at 37° C. in a humidified atmosphere with 10% CO2. The media was removed after 24 hours and the cells were treated with 60 μM GR24 or with 60 μM 1A, 1B, 5A, 5B, 6A, or 7A and incubated for 24 hours at 37° C. in a humidified atmosphere with 10% CO2. In all experiments, the controls were treated with the same volume of DMSO as was used to dissolve compounds in compound-treated cells to show and ensure that the actual change in protein expression in different treatments was only due to the compounds […]. The media was removed, cells were washed with PBS and cell lysates were collected on ice. Proteins were extracted using RIPA buffer along with protease and phosphatase inhibitors. Lysates were centrifuged for 30 min at high speed; supernatant was collected and stored at −70° C. until further analysis.

[3] = test system: phospho-AMPK; assay: phospho-AMPK expression / AMPK activation, immunoblot in 3T3 L1 preadipocytes; format: cell-based; conditions: 3T3 L1 preadipocytes, 60 μM, 24 hours
Procedure: as §1
as §2, with “The media was removed after 24 hours and the cells were treated with 60 μM GR24 individually and in combination with 60 resveratrol and 60 μM pinosylvin, and incubated for 24 hours at 37° C. in a humidified atmosphere with 10% CO2.” left out
as §3, §4

[4] = test system: phospho-ACC; assay: phospho-ACC expression, immunoblot in 3T3 L1 preadipocytes; format: cell-based; conditions: 3T3 L1 preadipocytes, 60 μM, 24 hours
[5] = target: T1, SIRT1 (Mus musculus, UniProt Q923E4); conditions: mice; cited from earlier work
T1 construct: host or cells: mice (in vivo)
T1 sequence (Q923E4 1-737): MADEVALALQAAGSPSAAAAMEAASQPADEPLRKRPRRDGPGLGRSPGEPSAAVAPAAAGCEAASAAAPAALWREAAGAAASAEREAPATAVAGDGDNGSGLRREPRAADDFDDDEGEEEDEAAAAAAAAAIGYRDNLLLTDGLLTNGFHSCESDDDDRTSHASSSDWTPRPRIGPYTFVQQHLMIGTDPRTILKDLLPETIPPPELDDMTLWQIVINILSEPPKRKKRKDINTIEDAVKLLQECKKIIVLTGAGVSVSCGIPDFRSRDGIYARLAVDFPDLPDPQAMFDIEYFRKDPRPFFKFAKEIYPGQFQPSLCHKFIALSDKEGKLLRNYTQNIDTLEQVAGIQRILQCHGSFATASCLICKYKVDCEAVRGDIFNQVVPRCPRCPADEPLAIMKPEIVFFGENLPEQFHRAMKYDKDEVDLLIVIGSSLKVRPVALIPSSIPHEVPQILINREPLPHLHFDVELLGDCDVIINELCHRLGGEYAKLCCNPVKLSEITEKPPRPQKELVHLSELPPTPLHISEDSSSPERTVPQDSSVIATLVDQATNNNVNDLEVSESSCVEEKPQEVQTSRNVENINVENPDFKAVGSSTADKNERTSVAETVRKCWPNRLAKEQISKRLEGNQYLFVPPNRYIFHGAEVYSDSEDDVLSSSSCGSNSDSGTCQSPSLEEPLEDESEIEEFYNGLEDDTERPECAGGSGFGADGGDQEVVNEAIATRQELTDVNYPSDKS

[6] = test system: mitochondria of 3T3L1 preadipocytes; assay: Mitochondrial staining with MitoTracker green, confocal microscopy; format: cell-based; conditions: 60 μM, 24 hours
Procedure: The 3T3L1 preadipocytes were plated onto Ibidi u-slide 8 well plates at 1.6×10^4 cells/well and incubated at 37° C. in a humidified atmosphere with 10% CO2. The media was removed after 24 hours, the cells were treated with 60 μM GR24 and incubated for 24 hours at 37° C. in a humidified atmosphere with 10% CO2. After 24 hours of treatment, staining of mitochondria was done using 200 nM MitoTracker Mitochondrion-Selective Probes (Green FM probes Cat.#M7514, Invitrogen) according to the manufacturer's instructions. The cells were observed using a confocal microscope and images were taken at 40× oil immersion.
Preadipocytes were treated with DMSO (Vehicle control) (FIG. 5A), 60 μM resveratrol (FIG. 5B) or 60 μM strigolactone analog GR24 (FIG. 5C) for 24 hours. Next, preadipocytes were stained with MitoTracker green and observed under a confocal microscope at 40× oil immersion. […] The white oval shaped structures are nucleus and the white thread-like structures around the nucleus in the cytoplasm are mitochondria. When compared to the control, there was an increase in mitochondrial biogenesis represented by elongated mitochondria, and an increase in mitochondrial activation represented by the intensity of fluorescence, in cells treated with resveratrol and GR24. […] Thus, GR24 enhances both biogenesis and activity of mitochondria, which is necessary to generate ATP.

Structure (SMILES) | SIRT1 protein expression compared to control (100%) [1] | SIRT1 protein expression, Derivative vs. GR24 [1] | PGC-1α protein expression compared to control (100%) [2] | PGC-1α protein expression, Derivative vs. GR24 [2] | phospho-AMPK expression compared to control [3] | phospho-ACC expression (phosphorylation of ACC) compared to control [4] | SIRT1 activity [5] | genes responsible for mitochondrial biogenesis [5] | mitochondrial activation (intensity of fluorescence) compared to control [6] | mitochondrial biogenesis (elongated mitochondria) compared to control [6]
CC1=C[C@H](O/C=C2/C(=O)O[C@H]3c4c(C)cccc4C[C@@H]23)OC1=O [Compound 5B] | 5B 327% | +48% | 5B 327% | +48% |  |  |  |  |  | 
CCC1=C[C@H](O/C=C2/C(=O)O[C@H]3c4ccccc4C[C@@H]23)OC1=O [Compound 1B] | 1B 215% | +31% | 1B 215% | +31% |  |  |  |  |  | 
CCC1=C[C@H](O/C=C2/C(=O)O[C@@H]3c4ccccc4C[C@H]23)OC1=O [Compound 1A] | 1A 186% | +11% | 1A 186% | +11% |  |  |  |  |  | 
COc1ccc(C)c2c1C[C@@H]1/C(=C\O[C@H]3C=C(C)C(=O)O3)C(=O)O[C@H]21 [Compound 7A] | 7A 218% | +30% | 7A 218% | +30% |  |  |  |  |  | 
COc1cccc2c1[C@H]1OC(=O)/C(=C/O[C@H]3C=C(C)C(=O)O3)[C@H]1C2 [Compound 6A] | 6A 206% | +38% | 6A 206% | +38% |  |  |  |  |  | 
Oc1ccc(/C=C/c2cc(O)cc(O)c2)cc1 [resveratrol, 3,5,4″-trans-trihydroxystilbene] |  |  |  |  | significant increase; also recorded: increased | no change | increases | stimulates | increase | increase
